According to patent US8114583B2, “Switch-region: target and method for inhibition of bacterial RNA polymerase” (priority 2005, dated 2012):
Where “and” joins values, the source holds several entries; their conditions need not be identical. Identical values can stand only once. Like-named read-outs stand apart in the source and are kept apart here.

How the values were obtained:
[1] = test system: Escherichia coli with substitutions in RNAP β′ subunit (rpoC) or β subunit (rpoB); test: MIC ratio (MIC mutant/MIC wild-type) of resistant rpoC/rpoB mutants; assay type: cell-based
Text: To identify determinants for function of Myx, Applicant has performed random mutagenesis of genes encoding Escherichia coli RNAP β′ subunit (rpoC) and β subunit (rpoB), and has isolated and sequenced five independent Myx-resistant mutants (methods as described in Mukhopadhyay, et al. (2004) Mol. Cell. 14, 739-751).
To further define determinants for function of Myx, Applicant has performed saturation mutagenesis of genes encoding Escherichia coli RNAP β′ subunit (rpoC) and β subunit (rpoB), and has isolated and sequenced more than 100 independent Myx-resistant mutants (methods as described in Mukhopadhyay, et al. (2004) Mol. Cell. 14, 739-751; Tuske, et al. […] Cell 122, 541-552). Saturation mutagenesis was performed using a set of “doped” oligodeoxyribonucleotide primers targeting all codons for residues located within 30 Å of β′ residue 345 and β residues 1275 and 1292 in the three-dimensional structure of bacterial RNAP (primer sequences in Table 2). […]

[2] = test system: Escherichia coli DH21tolC; test: bacteriocidal activity; assay type: cell-based; details: unpublished data
[3] = target: T. thermophilus RNAP holoenzyme (Thermus thermophilus, UniProt Q8RQE8+Q8RQE9); test: inhibition of T. thermophilus RNAP holoenzyme; assay type: biochemical; details: unpublished data; read-out: K, inhibition of T. thermophilus RNAP holoenzyme
Escherichia coli RNAP = Escherichia coli RNAP (Escherichia coli, UniProt P0A8T7+P0A8V2); assay type: biochemical
Text: (A) DNA construct SEQ ID NO:133. (B) Data.
(A) DNA construct SEQ ID NO:134. (B) Data.
Applicant has performed transcription and DNA-binding experiments in order to define the basic mechanism of transcription inhibition by Myx (methods as in Mukhopadhyay, et al. (2004) Mol. Cell. 14, 739-751).
Applicant has performed DNA binding experiments with a series of subfragments of promoter DNA in order to map the interaction of RNAP with promoter DNA inhibited by Myx (methods as in Mukhopadhyay, et al. (2004) Mol. Cell. 14, 739-751). […] This DNA segment corresponds, precisely, to the DNA segment proposed to bind within the RNAP active-center cleft, and to be affected by clamp opening and closing, in structural models of transcription initiation complexes (see Ebright (2000) J. Mol. Biol. 304, 687-698; Murakami, et al. (2003) Curr. Opin. Stuct. Biol. 12, 89-97; Borukhov & Nudler (2003) Curr. Opin. Microbiol. 6, 93-100; Murakami, et al. (2002) Science 296, 1285-1290; Naryshkin, et al. (2000) Cell 101, 601-611; Mekler, et al. (2002) Cell 108, 599-614).

[4] = target: wild-type Escherichia coli RNAP and [Arg345]β′-RNAP (Escherichia coli, UniProt P0A8T7+P0A8V2, K345R); details: [Arg345]β′-RNAP versus wild-type RNAP; FIG. 7
Bacillus subtilis = details: cited from earlier work
B. megaterium = details: cited from earlier work
Micrococcus luteus = details: cited from earlier work
Enterococcus faecium = details: cited from earlier work
Enterobacter cloacae = details: cited from earlier work
[5] = test system: Corynebacterium mediolanum; details: cited from earlier work
Mycobacterium smegmatis = details: cited from earlier work
Pseudomonas aeruginosa = details: cited from earlier work
bacterial RNAP = bacterial RNAP (Escherichia coli, UniProt P0A8T7+P0A8V2); details: read-out: Ki, inhibition of bacterial RNAP; cited from earlier work
eukaryotic RNAP II = details: cited from earlier work
mice = details: at concentrations up to 100 mg/kg; cited from earlier work
[6] = test system: Escherichia coli DH21tolC; details: cited from earlier work
Staphylococcus aureus = details: cited from earlier work

## CCC/C(C)=C/C=C(\C)C(=O)c1c(O)cc([C@H](C)CC/C=C/NC(=O)OC)oc1=O [Myx, myxopyronin]
[1]; rpoB 1255 Thr→Ile
  MIC ratio (MIC, mutant/MIC, wild-type): 2
[1]; rpoB 1275 Val→Met
  MIC ratio (MIC, mutant/MIC, wild-type): >32
[1]; rpoB 1275 Val→Phe
  MIC ratio (MIC, mutant/MIC, wild-type): >32
[1]; rpoB 1278 Leu→Val
  MIC ratio (MIC, mutant/MIC, wild-type): 2
[1]; rpoB 1279 Glu→Gly
  MIC ratio (MIC, mutant/MIC, wild-type): 32
[1]; rpoB 1279 Glu→Lys
  MIC ratio (MIC, mutant/MIC, wild-type): >32
[1]; rpoB 1283 Ala→Val
  MIC ratio (MIC, mutant/MIC, wild-type): 2
[1]; rpoB 1285 Tyr→Asp
  MIC ratio (MIC, mutant/MIC, wild-type): 2
[1]; rpoB 1291 Leu→Phe
  MIC ratio (MIC, mutant/MIC, wild-type): 2
[1]; rpoB 1298 Val→Leu
  MIC ratio (MIC, mutant/MIC, wild-type): 4 and 2
[1]; rpoB 1315 Met→Leu
  MIC ratio (MIC, mutant/MIC, wild-type): 2
[1]; rpoB 1317 Pro→Leu
  MIC ratio (MIC, mutant/MIC, wild-type): 2
[1]; rpoB 1320 Pro→Ala
  MIC ratio (MIC, mutant/MIC, wild-type): 2
[1]; rpoB 1322 Ser→Pro
  MIC ratio (MIC, mutant/MIC, wild-type): 32
[1]; rpoB 1322 Ser→Thr
  MIC ratio (MIC, mutant/MIC, wild-type): 2
[1]; rpoB 1322 Ser→Tyr
  MIC ratio (MIC, mutant/MIC, wild-type): 2
[1]; rpoB 1322 Ser→Val
  MIC ratio (MIC, mutant/MIC, wild-type): 16
[1]; rpoB 1325 Val→Leu
  MIC ratio (MIC, mutant/MIC, wild-type): 2
[1]; rpoB 1326 Leu→Trp
  MIC ratio (MIC, mutant/MIC, wild-type): 1
[1]; rpoC 345 Lys→Arg
  MIC ratio (MIC, mutant/MIC, wild-type): >32
[1]; rpoC 345 Lys→Asn
  MIC ratio (MIC, mutant/MIC, wild-type): 32
[1]; rpoC 345 Lys→Thr
  MIC ratio (MIC, mutant/MIC, wild-type): 32
[1]; rpoC 1346 Gly→Asp
  MIC ratio (MIC, mutant/MIC, wild-type): 1
[1]; rpoC 1351 Val→Phe
  MIC ratio (MIC, mutant/MIC, wild-type): >32
[1]; rpoC 1352 Ile→Asn
  MIC ratio (MIC, mutant/MIC, wild-type): 2
[1]; rpoC 1352 Ile→Ser
  MIC ratio (MIC, mutant/MIC, wild-type): 2
[1]; rpoC 1354 Gly→Cys
  MIC ratio (MIC, mutant/MIC, wild-type): 2
[2]
  bacteriocidal or not: bacteriocidal
[3]
  Ki: 20000 nM
Escherichia coli RNAP
  interaction of RNAP with promoter DNA: preventing stable interaction
  interaction of RNAP with promoter DNA segment comprising positions −40 to −12: does not inhibit
  interaction of RNAP with segment of promoter DNA comprising positions −11 to +15: inhibits
[4]
  effect of substitution within the switch-region sequence on binding of Myx to RNAP: reduces binding
Bacillus subtilis
  MIC: ≤ 10 µg/mL
B. megaterium
  MIC: ≤ 10 µg/mL
Micrococcus luteus
  MIC: ≤ 10 µg/mL
Enterococcus faecium
  MIC: ≤ 10 µg/mL
Enterobacter cloacae
  MIC: ≤ 10 µg/mL
[5]
  MIC: ≤ 10 µg/mL
Mycobacterium smegmatis
  MIC: ≤ 10 µg/mL
Pseudomonas aeruginosa
  MIC: ≤ 10 µg/mL
Bacterial RNAP
  Ki: 1000 nM
Eukaryotic RNAP II
  inhibition of eukaryotic RNAP II: does not inhibit
mice
  acute toxicity in mice: no acute toxicity

## C/C=C/C/C=C(\C)C(O)CC/C(C)=C/C=C(\C)C(=O)c1c(O)cc([C@H](C)CC/C=C/NC(=O)OC)oc1=O (some centres unmarked) [Cor, corallopyronin]
[1]; rpoB 1255 Thr→Ile
  MIC ratio (MIC, mutant/MIC, wild-type): 4
[1]; rpoB 1275 Val→Met
  MIC ratio (MIC, mutant/MIC, wild-type): >8
[1]; rpoB 1275 Val→Phe
  MIC ratio (MIC, mutant/MIC, wild-type): >8
[1]; rpoB 1278 Leu→Val
  MIC ratio (MIC, mutant/MIC, wild-type): 4
[1]; rpoB 1279 Glu→Gly
  MIC ratio (MIC, mutant/MIC, wild-type): 4
[1]; rpoB 1279 Glu→Lys
  MIC ratio (MIC, mutant/MIC, wild-type): 8
[1]; rpoB 1283 Ala→Val
  MIC ratio (MIC, mutant/MIC, wild-type): 4
[1]; rpoB 1285 Tyr→Asp
  MIC ratio (MIC, mutant/MIC, wild-type): 1
[1]; rpoB 1291 Leu→Phe
  MIC ratio (MIC, mutant/MIC, wild-type): 1
[1]; rpoB 1298 Val→Leu
  MIC ratio (MIC, mutant/MIC, wild-type): 2
[1]; rpoB 1315 Met→Leu
  MIC ratio (MIC, mutant/MIC, wild-type): 2
[1]; rpoB 1317 Pro→Leu
  MIC ratio (MIC, mutant/MIC, wild-type): 2
[1]; rpoB 1320 Pro→Ala
  MIC ratio (MIC, mutant/MIC, wild-type): 4
[1]; rpoB 1322 Ser→Pro
  MIC ratio (MIC, mutant/MIC, wild-type): 4
[1]; rpoB 1322 Ser→Thr
  MIC ratio (MIC, mutant/MIC, wild-type): 4
[1]; rpoB 1322 Ser→Tyr
  MIC ratio (MIC, mutant/MIC, wild-type): 4
[1]; rpoB 1322 Ser→Val
  MIC ratio (MIC, mutant/MIC, wild-type): 8
[1]; rpoB 1325 Val→Leu
  MIC ratio (MIC, mutant/MIC, wild-type): 4
[1]; rpoB 1326 Leu→Trp
  MIC ratio (MIC, mutant/MIC, wild-type): >8
[1]; rpoC 345 Lys→Arg
  MIC ratio (MIC, mutant/MIC, wild-type): >8
[1]; rpoC 345 Lys→Asn
  MIC ratio (MIC, mutant/MIC, wild-type): 8
[1]; rpoC 345 Lys→Thr
  MIC ratio (MIC, mutant/MIC, wild-type): 8
[1]; rpoC 1346 Gly→Asp
  MIC ratio (MIC, mutant/MIC, wild-type): 4
[1]; rpoC 1351 Val→Phe
  MIC ratio (MIC, mutant/MIC, wild-type): >8
[1]; rpoC 1352 Ile→Asn
  MIC ratio (MIC, mutant/MIC, wild-type): 4
[1]; rpoC 1352 Ile→Ser
  MIC ratio (MIC, mutant/MIC, wild-type): 4
[1]; rpoC 1354 Gly→Cys
  MIC ratio (MIC, mutant/MIC, wild-type): 2
[2]
  bacteriocidal or not: bacteriocidal
Escherichia coli RNAP
  effects on transcription, promoter binding, and promoter-subfragment binding: same mechanism as Myx
Bacillus subtilis
  MIC: ≤ 10 µg/mL
B. megaterium
  MIC: ≤ 10 µg/mL
Micrococcus luteus
  MIC: ≤ 10 µg/mL
[5]
  MIC: ≤ 10 µg/mL
[6]
  MIC: ≤ 10 µg/mL
Bacterial RNAP
  Ki: 4000 nM
Eukaryotic RNAP II
  inhibition of eukaryotic RNAP II: does not inhibit

## C/C(=C\Cc1ccccc1)CCC(=O)C[C@H]1C[C@H](O)C/C(C)=C/C/C=C/C/C(CC(=O)O)=C\C(=O)O1 [Rip, ripostatin]
[1]; rpoB 1255 Thr→Ile
  MIC ratio (MIC, mutant/MIC, wild-type): 4
[1]; rpoB 1275 Val→Met
  MIC ratio (MIC, mutant/MIC, wild-type): 8
[1]; rpoB 1275 Val→Phe
  MIC ratio (MIC, mutant/MIC, wild-type): >16
[1]; rpoB 1278 Leu→Val
  MIC ratio (MIC, mutant/MIC, wild-type): >16
[1]; rpoB 1279 Glu→Gly
  MIC ratio (MIC, mutant/MIC, wild-type): >16
[1]; rpoB 1279 Glu→Lys
  MIC ratio (MIC, mutant/MIC, wild-type): 4
[1]; rpoB 1283 Ala→Val
  MIC ratio (MIC, mutant/MIC, wild-type): 4
[1]; rpoB 1285 Tyr→Asp
  MIC ratio (MIC, mutant/MIC, wild-type): 4
[1]; rpoB 1291 Leu→Phe
  MIC ratio (MIC, mutant/MIC, wild-type): 4
[1]; rpoB 1298 Val→Leu
  MIC ratio (MIC, mutant/MIC, wild-type): 4
[1]; rpoB 1315 Met→Leu
  MIC ratio (MIC, mutant/MIC, wild-type): 4
[1]; rpoB 1317 Pro→Leu
  MIC ratio (MIC, mutant/MIC, wild-type): 2
[1]; rpoB 1320 Pro→Ala
  MIC ratio (MIC, mutant/MIC, wild-type): 4
[1]; rpoB 1322 Ser→Pro
  MIC ratio (MIC, mutant/MIC, wild-type): >16
[1]; rpoB 1322 Ser→Thr
  MIC ratio (MIC, mutant/MIC, wild-type): 4
[1]; rpoB 1322 Ser→Tyr
  MIC ratio (MIC, mutant/MIC, wild-type): 2
[1]; rpoB 1322 Ser→Val
  MIC ratio (MIC, mutant/MIC, wild-type): >16
[1]; rpoB 1325 Val→Leu
  MIC ratio (MIC, mutant/MIC, wild-type): 4
[1]; rpoB 1326 Leu→Trp
  MIC ratio (MIC, mutant/MIC, wild-type): >16
[1]; rpoC 345 Lys→Arg
  MIC ratio (MIC, mutant/MIC, wild-type): >16
[1]; rpoC 345 Lys→Asn
  MIC ratio (MIC, mutant/MIC, wild-type): 8
[1]; rpoC 345 Lys→Thr
  MIC ratio (MIC, mutant/MIC, wild-type): >16
[1]; rpoC 1346 Gly→Asp
  MIC ratio (MIC, mutant/MIC, wild-type): 4
[1]; rpoC 1351 Val→Phe
  MIC ratio (MIC, mutant/MIC, wild-type): >16
[1]; rpoC 1352 Ile→Asn
  MIC ratio (MIC, mutant/MIC, wild-type): >16
[1]; rpoC 1352 Ile→Ser
  MIC ratio (MIC, mutant/MIC, wild-type): >16
[1]; rpoC 1354 Gly→Cys
  MIC ratio (MIC, mutant/MIC, wild-type): 4
[2]
  bacteriocidal or not: bacteriocidal
Escherichia coli RNAP; results not shown
  effects on transcription, promoter binding, and promoter-subfragment binding: same mechanism as Myx
Staphylococcus aureus
  MIC: ≤ 1 µg/mL
[6]
  MIC: ≤ 1 µg/mL
Bacterial RNAP
  Ki: 300 nM
Eukaryotic RNAP II
  inhibition of eukaryotic RNAP II: does not inhibit
